Experiment: UV titration of ter-cyclopentane tetra-amino acid derivatives with lipid A
Type: binding, Salmonella minnesota
Conditions: for binding to lipid A in UV titration, in words: aqueous solution, concentrations below the cmc of lipid A / >20 micromolar in lipid A
Protocol: A 600 microliter, 0.9 μM solution of the ter-cyclopentane tetra-amino acid derivative in water (pH=5.0) or phosphate-buffered saline (PBS, pH=7.4) was allowed to equilibrate in a 1.0-ml masked wall UV cell at ambient temperature (22° C.), in a Shimadzu 1600-PC UV spectrophotometer. […] After each addition, the solution was allowed to equilibrate for a minimum of 5 minutes, then scanned for absorbance 550-220 nm.

| Compound | lipid A binding affinity compared with polymyxins | binding to lipid A in UV titration, in words |
| --- | --- | --- |
| NC(Cc1c[nH]c2ccccc12)C(=O)OCC1CC(COC(=O)C(N)Cc2c[nH]c3ccccc23)C(C2CCC(C3C(COC(=O)C(N)Cc4c[nH]c5ccccc45)CC(COC(=O)C(N)Cc4c[nH]c5ccccc45)C3COC(=O)c3ccccc3)C2)C1COC(=O)c1ccccc1 (mixture of isomers) [Compound 7.3, tetra-tryptophaninate ter-cyclopentane] | greater than the binding affinity of polymyxins |  |
| NCC(=O)OCC1CC(COC(=O)CN)C(C2CCC(C3C(COC(=O)CN)CC(COC(=O)CN)C3COC(=O)c3ccccc3)C2)C1COC(=O)c1ccccc1 (stereo not shown) [Compound 7.1, tetra-glycinate ter-cyclopentane] |  | saturation point for binding of lipid A to 7.1 was not reached |
| COC(=O)[C@@H](N)Cc1c[nH]c2ccccc12 [Compound H2N-Trp-OCH3, tryptophan methyl-ester, reference compound] |  | not saturatable at the concentrations tested |
| tetra-phenylalaninate ter-cyclopentane [Compound 7.2] |  | reasonable affinity |

— patent publication US6562782B1, “Oligocycloalkanoid compounds and methods of use” (University of Rochester, priority 1999, dated 2003)
